Measurements reported in patent US11464759B2, “5-HT6 receptor antagonists for use in the treatment of alzheimer's disease in patient subpopulation carrying APOE4 alleles” (H. Lundbeck A/S, priority 2017, dated 2022).
pKi: −log10 of the molar value. Entries after “also recorded” stand apart in the source; their conditions may differ.

What was measured:
[1] = tested on: patients with mild-moderate AD; experiment: Phase III studies 14861A and 14863A pooled, ADAS-cog by ApoE4 allele number; conditions: 60 mg versus placebo, adjunct to AChEI
[2] = tested on: patients with mild-moderate AD; experiment: Phase III studies 14861A and 14863A pooled, ADCS-ADL by ApoE4 allele number; conditions: 60 mg versus placebo, adjunct to AChEI
[3] = tested on: patients with mild-moderate AD; experiment: Phase III study 14861A, ADCS-ADL by ApoE4 allele number; conditions: 60 mg QD versus placebo, adjunct to donepezil
[4] = tested on: patients with mild-moderate AD; experiment: Phase III study 14863A, ADCS-ADL by ApoE4 allele number; conditions: 60 mg QD versus placebo, adjunct to donepezil, rivastigmine, galantamine
[5] = tested on: patients with mild-moderate AD; experiment: Phase III study 14861A, MMSE by ApoE4 allele number; conditions: 60 mg QD versus placebo, adjunct to donepezil
[6] = tested on: patients with moderate AD (MMSE 12-19); conditions: LADDER study, 90 mg/day (30 mg TID) added to stable donepezil; cited from earlier work
[7] = tested on: patients with mild-moderate AD; experiment: Phase III studies 14861A and 14863A pooled, MMSE by ApoE4 allele number; conditions: 60 mg versus placebo, adjunct to AChEI
[8] = tested on: patients with mild-moderate AD; experiment: Phase III study 14861A, NPI by ApoE4 allele number; conditions: 60 mg QD versus placebo, adjunct to donepezil
[9] = tested on: patients with mild-moderate AD; experiment: Phase III study 14863A, ADAS-cog by ApoE4 allele number; conditions: 60 mg QD versus placebo, adjunct to donepezil, rivastigmine, galantamine
[10] = tested on: patients with mild-moderate AD; experiment: Phase III study 14861A, ADAS-cog by ApoE4 allele number; conditions: 60 mg QD versus placebo, adjunct to donepezil
[11] = tested on: patients with mild-moderate AD; experiment: Phase III study 14863A, MMSE by ApoE4 allele number; conditions: 60 mg QD versus placebo, adjunct to donepezil, rivastigmine, galantamine
h5-HT2B = h5-HT2B (Homo sapiens, UniProt P41595); conditions: cited from earlier work
h5-HT7 = h5-HT7 (Homo sapiens, UniProt P34969); conditions: cited from earlier work
h5-HT1B = h5-HT1B (Homo sapiens, UniProt P28222); conditions: cited from earlier work
[12] = tested on: patients with mild-moderate AD; experiment: Phase III studies 14861A and 14863A pooled, NPI by ApoE4 allele number; conditions: 60 mg versus placebo, adjunct to AChEI
h5-HT1E = h5-HT1E (Homo sapiens, UniProt P28566); conditions: cited from earlier work
[13] = tested on: patients with mild-moderate Alzheimer's disease (MMSE 12-22); experiment: Phase III program, idalopirdine as adjunctive treatment to acetylcholinesterase inhibitor, cognitive performance; format: in vivo, human
[14] = tested on: patients with mild-moderate AD; experiment: Phase III study 14863A, NPI by ApoE4 allele number; conditions: 60 mg QD versus placebo, adjunct to donepezil, rivastigmine, galantamine
[15] = tested on: APOE4/4 homozygote patients and APOE4 heterozygote patients with mild-moderate Alzheimer's disease; experiment: Expected treatment response to other 5-HT6 receptor antagonists in APOE4 patients; format: in vivo, human; conditions: APOE4/4 homozygote and APOE4 heterozygote patients with mild-moderate AD; surmised from idalopirdine
AD = conditions: cited from earlier work
[16] = 0 ApoE4 alleles, negative = positive treatment effect
[17] = 1 ApoE4 allele, negative = positive treatment effect
[18] = 2 ApoE4 alleles, negative = positive treatment effect
[19] = interaction 2 vs 0 ApoE4 alleles
[20] = interaction (1 or 2) vs 0 ApoE4 alleles
[21] = 0 ApoE4 alleles, positive = positive treatment effect
[22] = 1 ApoE4 allele, positive = positive treatment effect
[23] = 2 ApoE4 alleles, positive = positive treatment effect

Chain of h5-HT1B (P28222 whole entry): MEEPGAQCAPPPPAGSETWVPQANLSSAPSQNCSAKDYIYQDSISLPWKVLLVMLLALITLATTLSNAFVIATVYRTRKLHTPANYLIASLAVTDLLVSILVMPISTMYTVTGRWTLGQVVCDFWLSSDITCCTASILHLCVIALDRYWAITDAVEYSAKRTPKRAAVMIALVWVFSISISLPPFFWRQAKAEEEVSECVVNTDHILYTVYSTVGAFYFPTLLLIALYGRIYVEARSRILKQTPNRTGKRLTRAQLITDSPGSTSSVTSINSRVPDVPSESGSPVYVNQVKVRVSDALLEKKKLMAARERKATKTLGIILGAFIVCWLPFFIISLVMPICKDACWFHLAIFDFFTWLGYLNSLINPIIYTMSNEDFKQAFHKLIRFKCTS
Chain of h5-HT7 (P34969 whole entry): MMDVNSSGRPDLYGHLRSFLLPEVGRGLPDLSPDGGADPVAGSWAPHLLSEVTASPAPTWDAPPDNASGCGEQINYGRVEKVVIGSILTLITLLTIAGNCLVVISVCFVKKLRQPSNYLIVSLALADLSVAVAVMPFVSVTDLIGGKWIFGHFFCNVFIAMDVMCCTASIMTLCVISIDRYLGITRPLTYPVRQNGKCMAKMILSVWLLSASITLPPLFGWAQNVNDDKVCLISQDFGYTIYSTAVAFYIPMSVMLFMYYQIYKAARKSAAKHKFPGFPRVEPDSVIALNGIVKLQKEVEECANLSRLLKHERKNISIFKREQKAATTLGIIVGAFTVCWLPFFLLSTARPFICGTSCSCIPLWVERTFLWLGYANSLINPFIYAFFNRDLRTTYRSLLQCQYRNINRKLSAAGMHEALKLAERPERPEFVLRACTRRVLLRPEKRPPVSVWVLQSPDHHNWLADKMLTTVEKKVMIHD
Chain of h5-HT1E (P28566 whole entry): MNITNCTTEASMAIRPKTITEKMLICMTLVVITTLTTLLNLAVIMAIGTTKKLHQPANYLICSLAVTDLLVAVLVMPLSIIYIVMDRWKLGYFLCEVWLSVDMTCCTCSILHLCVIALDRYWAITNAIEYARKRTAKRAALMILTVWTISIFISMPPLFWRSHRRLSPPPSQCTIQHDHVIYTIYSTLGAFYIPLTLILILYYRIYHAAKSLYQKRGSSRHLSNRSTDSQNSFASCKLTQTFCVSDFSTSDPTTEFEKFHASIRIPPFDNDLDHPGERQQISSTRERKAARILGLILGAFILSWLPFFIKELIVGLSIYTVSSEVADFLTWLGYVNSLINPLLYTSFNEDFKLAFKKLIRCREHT
Chain of h5-HT2B (P41595 whole entry): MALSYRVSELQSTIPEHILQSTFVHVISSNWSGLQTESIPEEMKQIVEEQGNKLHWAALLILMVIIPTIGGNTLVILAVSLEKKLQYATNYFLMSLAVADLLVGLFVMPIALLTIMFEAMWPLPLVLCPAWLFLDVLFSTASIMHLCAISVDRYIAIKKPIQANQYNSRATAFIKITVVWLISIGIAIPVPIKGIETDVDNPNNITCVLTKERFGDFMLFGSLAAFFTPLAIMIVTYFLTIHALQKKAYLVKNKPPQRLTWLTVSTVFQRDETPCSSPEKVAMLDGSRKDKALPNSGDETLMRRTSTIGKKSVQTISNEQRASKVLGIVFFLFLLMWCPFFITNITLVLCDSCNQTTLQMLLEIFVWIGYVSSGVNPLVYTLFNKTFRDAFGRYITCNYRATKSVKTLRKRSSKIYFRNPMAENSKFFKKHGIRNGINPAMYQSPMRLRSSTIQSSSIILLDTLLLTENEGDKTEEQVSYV

With Fc1ccc2c(CCNCc3cccc(OCC(F)(F)C(F)F)c3)c[nH]c2c1 [idalopirdine, N-(2-(6-fluoro-1H-indol-3-yl)-ethyl)-3-(2,2,3,3-tetrafluoropropoxy)-benzylamine] as the compound, how does the “Change in ADAS-cog at week 24, effect of 60 mg IDL” value (“Change in ADAS-cog” below) [1, 16] read?
Its value is 0.02.

And the “Change in ADAS-cog” value [1, 17]?
Its value is −0.41.

What about the “Change in ADAS-cog” value [1, 18] of the same compound?
The value was −2.11.

What about the “Change in ADAS-cog” value [1, 19] of the same compound?
The value was −2.13.

What about the “Change in ADAS-cog” value [1, 20] of the same compound?
The value was −1.28.

What about the “Change in ADCS-ADL at week 24, effect of 60 mg IDL” value (from here on “Change in ADCS-ADL”) [2, 21] of the same compound?
Its value is −0.21.

What about the “Change in ADCS-ADL” value [2, 22] of the same compound?
The value was 0.77.

What about the “Change in ADCS-ADL” value [2, 23] of the same compound?
Its value is 1.88.

What about the “Change in ADCS-ADL” value [2, 19] of the same compound?
Its value is 2.09.

And the “Change in ADCS-ADL” value [2, 20]?
Its value is 1.53.

What about the “Change in ADCS-ADL” value [3, 21] of the same compound?
Its value is −1.29.

What about the “Change in ADCS-ADL” value [3, 22] of the same compound?
Its value is 0.75.

What about the “Change in ADCS-ADL” value [3, 23] of the same compound?
Its value is 2.06.

And the “Change in ADCS-ADL” value [3, 19]?
The value was 3.35.

What about the “Change in ADCS-ADL” value [3, 20] of the same compound?
The value was 2.69.

And the “Change in ADCS-ADL” value [4, 21]?
Its value is 0.50.

What about the “Change in ADCS-ADL” value [4, 22] of the same compound?
The value was 0.83.

And the “Change in ADCS-ADL” value [4, 23]?
The value was 1.86.

And the “Change in ADCS-ADL” value [4, 19]?
The value was 1.37.

What about the “Change in ADCS-ADL” value [4, 20] of the same compound?
Its value is 0.85.

What about the “Change in MMSE at week 24, effect of 60 mg IDL” value (shortened to “Change in MMSE”) [5, 21] of the same compound?
Its value is −0.68.

And the “Change in MMSE” value [5, 22]?
The value was 0.64.

And the “Change in MMSE” value [5, 23]?
Its value is 1.11.

And the “Change in MMSE” value [5, 19]?
The value was 1.79.

And the “Change in MMSE” value [5, 20]?
The value was 1.56.

And the “cognitive performance relative to donepezil monotherapy” value [6]?
The value was “significant improvement”.

What about the “Change in MMSE” value [7, 21] of the same compound?
Its value is −0.20.

What about the “Change in MMSE” value [7, 22] of the same compound?
The value was 0.53.

And the “Change in MMSE” value [7, 23]?
Its value is 1.00.

And the “Change in MMSE” value [7, 19]?
The value was 1.20.

And the “Change in MMSE” value [7, 20]?
The value was 0.96.

And the “Change in NPI at week 24, effect of 60 mg IDL” value (“Change in NPI” below) [8, 16]?
Its value is 0.96.

And the “Change in NPI” value [8, 17]?
The value was −0.43.

And the “Change in NPI” value [8, 18]?
The value was −4.52.

What about the “Change in NPI” value [8, 19] of the same compound?
Its value is −5.48.

And the “Change in NPI” value [8, 20]?
The value was −3.44.

And the “Change in ADAS-cog” value [9, 16]?
The value was −0.75.

And the “Change in ADAS-cog” value [9, 17]?
Its value is −0.18.

What about the “Change in ADAS-cog” value [9, 18] of the same compound?
Its value is −2.23.

And the “Change in ADAS-cog” value [9, 19]?
The value was −1.48.

What about the “Change in ADAS-cog” value [9, 20] of the same compound?
The value was −0.46.

And the “Change in ADAS-cog” value [10, 16]?
The value was 1.14.

What about the “Change in ADAS-cog” value [10, 17] of the same compound?
Its value is −0.67.

What about the “Change in ADAS-cog” value [10, 18] of the same compound?
The value was −1.87.

And the “Change in ADAS-cog” value [10, 19]?
The value was −3.02.

What about the “Change in ADAS-cog” value [10, 20] of the same compound?
The value was −2.42.

What about the “Change in MMSE” value [11, 21] of the same compound?
Its value is 0.16.

What about the “Change in MMSE” value [11, 22] of the same compound?
Its value is 0.42.

What about the “Change in MMSE” value [11, 23] of the same compound?
The value was 0.96.

What about the “Change in MMSE” value [11, 19] of the same compound?
The value was 0.80.

And the “Change in MMSE” value [11, 20]?
The value was 0.53.

What about the pKi (h5-HT2B) of the same compound?
Its pKi is < 5.39.

What about the pKi (h5-HT7) of the same compound?
Its pKi is < 5.00.

What about the pKi (h5-HT1B) of the same compound?
The pKi was < 5.00.

And the “Change in NPI” value [12, 16]?
The value was 0.35.

And the “Change in NPI” value [12, 17]?
The value was −0.04.

And the “Change in NPI” value [12, 18]?
Its value is −3.06.

What about the “Change in NPI” value [12, 19] of the same compound?
The value was −3.41.

What about the “Change in NPI” value [12, 20] of the same compound?
Its value is −1.90.

What about the pKi (h5-HT1E) of the same compound?
Its pKi is < 5.34.

What about the “cognitive performance relative to donepezil monotherapy” value ([13]; adjunctive to donepezil, APOE4 homozygote and APOE4 heterozygote patients with mild-moderate AD (MMSE 12-22)) of the same compound?
The value was “a significant improvement”.

What about the “cognitive performance relative to donepezil monotherapy” value ([13]; phase III, 10, 30, and 60 mg QD adjunctive to AChEI, all patients with mild-moderate AD (MMSE 12-22)) of the same compound?
Its value is “did not replicate the phase II efficacy results; also recorded: no significant improvement”.

And the “Change in NPI” value [14, 16]?
The value was −0.09.

What about the “Change in NPI” value [14, 17] of the same compound?
Its value is 0.34.

And the “Change in NPI” value [14, 18]?
Its value is −2.06.

What about the “Change in NPI” value [14, 19] of the same compound?
Its value is −1.97.

What about the “Change in NPI” value [14, 20] of the same compound?
The value was −0.77.

With O=S(=O)(c1ccccc1)c1cnc2c(N3CCNCC3)cccc2c1 [RVT-101, 3-phenylsulfonyl-8-piperazin-1-yl-quinoline] as the compound, how does the “treatment response in Alzheimer's disease” value [15] read?
Its value is “enhanced treatment response”.

Which “treatment response in Alzheimer's disease” value [15] does the source give for CSc1nn2c(C)cc(C)nc2c1S(=O)(=O)c1ccccc1 [AVN-211, 3-Benzenesulfonyl-5,7-dimethyl-2-methylsulfanyl-pyrazolo[1,5-a]pyrimidine] here?
The value was “enhanced treatment response”.

Which “primary endpoint of phase III program” value (AD; all patients) does the source give for NCCCS(=O)(=O)O [tramiprosate] here?
The value was “not to meet its primary endpoint”.

What about the prespecified subgroup analysis (AD; apolipoprotein E4 carriers) of the same compound?
The prespecified subgroup analysis was “potential efficacy”.
